# Assay results reported in patent US11098038B2, “Imidazole-based anticancer agents and derivatives thereof, and methods of making and using same” (The University of Toledo, priority 2017, dated 2021).
# Assays:
# Assay type in all cases: cell-based
# MOLT-4 = experiment: NCI 60 screen, MOLT-4; conditions: Homo sapiens, Leukemia
# Protocol: (§1) The compounds synthesized were tested at the National Cancer Institute (NCI) for anti-proliferative activity in the 60 human tumor cell line assay.
# HL-60(TB) = experiment: NCI 60 screen, HL-60(TB); conditions: Homo sapiens, Leukemia
# Protocol: as §1
# LOX IMVI = experiment: NCI 60 screen, LOX IMVI; conditions: Homo sapiens, Melanoma
# Protocol: as §1
# SK-MEL-2 [1] = experiment: NCI 60 screen, SK-MEL-2 (first line); conditions: Homo sapiens; Melanoma, SK-MEL-2 (first of two lines so named, r37)
# Protocol: as §1
# KM12 = experiment: NCI 60 screen, KM12; conditions: Homo sapiens, Colon
# Protocol: as §1
# MDA-MB-231/ATCC = experiment: NCI 60 screen, MDA-MB-231/ATCC; conditions: Homo sapiens, Breast
# Protocol: as §1
# MDA-MB-435 = experiment: NCI 60 screen, MDA-MB-435; conditions: Homo sapiens, Melanoma
# Protocol: as §1
# RXF393 = experiment: NCI 60 screen, RXF393; conditions: Homo sapiens, RXF 393, Renal
# Protocol: as §1
# K-562 = experiment: NCI 60 screen, K-562; conditions: Homo sapiens, K562, Leukemia
# Protocol: as §1
# OVCAR-8 = experiment: NCI 60 screen, OVCAR-8; conditions: Homo sapiens, Ovarian
# Protocol: as §1
# CCRF-CEM = experiment: NCI 60 screen, CCRF-CEM; conditions: Homo sapiens, Leukemia
# Protocol: as §1
# A498 = experiment: NCI 60 screen, A498; conditions: Homo sapiens, Renal
# Protocol: as §1
# SW-620 = experiment: NCI 60 screen, SW-620; conditions: Homo sapiens, Colon
# Protocol: as §1
# HS 578T = experiment: NCI 60 screen, HS 578T; conditions: Homo sapiens, Breast
# Protocol: as §1
# HCT15 = experiment: NCI 60 screen, HCT15; conditions: Homo sapiens, HCT-15, Colon
# Protocol: as §1
# SK-MEL-2 [2] = experiment: NCI 60 screen, SK-MEL-2 (second line); conditions: Homo sapiens; Melanoma, SK-MEL-2 (second of two lines so named, r38)
# Protocol: as §1
# HCT-116 = experiment: NCI 60 screen, HCT-116; conditions: Homo sapiens, Colon
# Protocol: as §1
# OVCAR-3 = experiment: NCI 60 screen, OVCAR-3; conditions: Homo sapiens, Ovarian
# Protocol: as §1
# MCF7 = experiment: NCI 60 screen, MCF7; conditions: Homo sapiens, Breast
# Protocol: as §1
# SF-295 = experiment: NCI 60 screen, SF-295; conditions: Homo sapiens, CNS
# Protocol: as §1
# UACC-62 = experiment: NCI 60 screen, UACC-62; conditions: Homo sapiens, Melanoma
# Protocol: as §1
# NCI-H226 = experiment: NCI 60 screen, NCI-H226; conditions: Homo sapiens, Non-Small Cell Lung
# Protocol: as §1
# UACC-257 = experiment: NCI 60 screen, UACC-257; conditions: Homo sapiens, Melanoma
# Protocol: as §1
# NCI/ADR-RES = experiment: NCI 60 screen, NCI/ADR-RES; conditions: Homo sapiens, Ovarian
# Protocol: as §1
# M14 = experiment: NCI 60 screen, M14; conditions: Homo sapiens, Melanoma
# Protocol: as §1
# SF-268 = experiment: NCI 60 screen, SF-268; conditions: Homo sapiens, CNS
# Protocol: as §1
# UO-31 = experiment: NCI 60 screen, UO-31; conditions: Homo sapiens, Renal
# Protocol: as §1
# NCI-H23 = experiment: NCI 60 screen, NCI-H23; conditions: Homo sapiens, Non-Small Cell Lung
# Protocol: as §1
# NCI-460 = experiment: NCI 60 screen, NCI-460; conditions: Homo sapiens, Non-Small Cell Lung
# Protocol: as §1
# NCI-322M = experiment: NCI 60 screen, NCI-322M; conditions: Homo sapiens, Non-Small Cell Lung
# Protocol: as §1
# SF-539 = experiment: NCI 60 screen, SF-539; conditions: Homo sapiens, CNS
# Protocol: as §1
smiles,measurement,setting,value
"O=C(Cc1ccc(/C=C/C(=O)c2ncc[nH]2)cc1)Nc1ccc(C(F)(F)F)cc1 [Compound 24, (E)-2-(4-(3-(1H-imidazole-2-yl)-3-oxoprop-1-en-1-yl)phenyl)-N-(4-(trifluoromethyl)phenyl) acetamide]",GI50,MOLT-4,2.29 µM
same,GI50,HL-60(TB),2.03 µM
same,GI50,LOX IMVI,0.469 µM
same,GI50,SK-MEL-2 [1],7.09 µM
same,GI50,KM12,1.11 µM
same,GI50,MDA-MB-231/ATCC,2.79 µM
same,GI50,MDA-MB-435,2.87 µM
same,GI50,RXF393,3.75 µM
same,GI50,K-562,1.24 µM
same,GI50,OVCAR-8,7.99 µM
same,GI50,CCRF-CEM,1.55 µM
same,GI50,A498,4.73 µM
same,GI50,SW-620,1.35 µM
same,GI50,HS 578T,5.88 µM
same,GI50,HCT15,1.04 µM
same,GI50,SK-MEL-2 [2],5.32 µM
same,GI50,HCT-116,0.694 µM
same,GI50,OVCAR-3,1.09 µM
same,GI50,MCF7,0.851 µM
same,GI50,SF-295,4.08 µM
same,GI50,UACC-62,4.47 µM
same,GI50,NCI-H226,6.11 µM
same,GI50,UACC-257,7.2 µM
same,GI50,NCI/ADR-RES,8.96 µM
same,GI50,M14,2.58 µM
same,GI50,SF-268,3.05 µM
same,GI50,UO-31,2.43 µM
same,GI50,NCI-H23,3.42 µM
same,GI50,NCI-460,3.6 µM
same,GI50,NCI-322M,4.68 µM
same,GI50,SF-539,4.52 µM
